{"source": "patent US10759816B2", "about": "“Heterocyclic compounds as RSV inhibitors” (Enanta Pharmaceuticals, Inc., priority 2016, dated 2020)", "data": [{"tested_on": "genotype A, \"Long\" strain RSV", "experiment": "RSV-A in vitro cytoprotection assay in HEp-2 cells (ATPlite readout of cell viability)", "format": "cell-based, Human respiratory syncytial virus", "conditions": "human respiratory syncytial virus, HEp-2, HEp-2 cells, genotype A “Long” strain RSV, cytoprotection; read-out: Human RSV-A (“Long” strain) EC50", "outline": "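Cytoprotection measured as ATP-based luminescence (ATPlite) after 4-day incubation of RSV Long-infected HEp-2 cells (8,000/well, 10% FBS DMEM) with 2-fold serial compound dilutions in duplicate. Identically treated virus-free plate gives cytotoxicity; EC50 calculated from viability.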", "units": {"EC50": "µM"}, "values": [{"compound": "O=C(NC1CC1)c1cc2c(s1)-c1ccccc1N(C(=O)c1ccc(CN3CCOCC3)cc1)CC2", "note": "[Example 1]", "EC50": "> 0.8"}, {"compound": "Cc1cccc(F)c1NC(=O)c1cc2c(s1)-c1ccccc1N(C(=O)c1cccc(N3CCC[C@@H]3C#N)n1)CC2", "note": "[Example 474]", "EC50": "< 0.4"}, {"compound": "COCCn1cc(-c2cccc(C(=O)N3CCc4cc(C(=O)NC5CC5)sc4-c4ccccc43)n2)cn1", "note": "[Example 160]", "EC50": "> 0.8"}, {"compound": "Cc1cccc(F)c1NC(=O)c1cc2c(s1)-c1ccccc1N(C(=O)c1cccc(NC3CCOCC3)n1)CC2", "note": "[Example 453]", "EC50": "< 0.4"}, {"compound": "COCC(C)(C)CNc1cccc(C(=O)N2CCc3cc(C(=O)NC4CC4)sc3-c3ccccc32)n1", "note": "[Example 321]", "EC50": "> 0.8"}, {"compound": "COc1ccc(C(=O)N2CCc3cc(C(=O)NC4CC4)sc3-c3ccccc32)nc1N1CCCOCC1", "note": "[Example 40]", "EC50": "0.4 to 0.8"}, {"compound": "O=C(NC1CC1)c1cc2c(s1)-c1ccccc1N(C(=O)c1cccc(N3CCOc4ccccc4C3)n1)CC2", "note": "[Example 32]", "EC50": "< 0.4"}, {"compound": "Cc1cccc(F)c1NC(=O)c1cc2c(s1)-c1ccccc1N(C(=O)c1cccc(N3CCS(=O)(=O)C(C)(C)C3)n1)CC2", "note": "[Example 431]", "EC50": "< 0.4"}, {"compound": "COC[C@H]1CCCN1c1cccc(C(=O)N2CCc3cc(C(=O)Nc4c(C)cccc4F)sc3-c3ccccc32)n1", "note": "[Example 506]", "EC50": "< 0.4"}, {"compound": "CC(=O)N1CC(NC(=O)c2cc3c(s2)-c2ccccc2N(C(=O)c2cccc(-c4c[nH]nc4C4CC4)n2)CC3)C1", "note": "[Example 185]", "EC50": "> 0.8"}, {"compound": "Cc1cccc(F)c1NC(=O)c1cc2c(s1)-c1ccccc1N(C(=O)c1cccc(N3CCC[C@H]3Cc3ccccc3)n1)CC2", "note": "[Example 487]", "EC50": "0.4 to 0.8"}, {"compound": "Cc1cccc(F)c1NC(=O)c1cc2c(s1)-c1ccccc1N(C(=O)c1cccc(NC3CS(=O)(=O)C3)n1)CC2", "note": "[Example 440]", "EC50": "< 0.4"}, {"compound": "O=C(NC1CC1)c1cc2c(s1)-c1ccccc1N(C(=O)c1cccc(N3CCC(F)(F)CC3)n1)CC2", "note": "[Example 23]", "EC50": "< 0.4"}, {"compound": "COc1cccc2c1ccn2-c1cccc(C(=O)N2CCc3cc(C(=O)NC4CC4)sc3-c3ccccc32)n1", "note": "[Example 114]", "EC50": "> 0.8"}, {"compound": "O=C(NC1CC1)c1cc2c(s1)-c1ccccc1N(C(=O)c1cccc(C3CCNCC3)n1)CC2", "note": "[Example 55]", "EC50": "> 0.8"}, {"compound": "Cc1cccc(F)c1NC(=O)c1cc2c(s1)-c1ccc(F)cc1N(C(=O)c1cccc(-c3c[nH]c4ncc(F)cc34)n1)CC2", "note": "[Example 169]", "EC50": "< 0.4"}, {"compound": "COCCNC(=O)c1cc2c(s1)-c1ccccc1N(C(=O)c1cccc(-c3ccc(OC)nc3)n1)CC2", "note": "[Example 97]", "EC50": "0.4 to 0.8"}, {"compound": "O=C(NC1CC1)c1cc2c(s1)-c1ccccc1N(C(=O)c1cccc(-c3cccnc3)n1)CC2", "note": "[Example 154]", "EC50": "> 0.8"}, {"compound": "Cc1ccc2[nH]cc(-c3cccc(C(=O)N4CCc5cc(C(=O)Nc6c(C)cccc6F)sc5-c5ccccc54)n3)c2c1", "note": "[Example 255]", "EC50": "0.4 to 0.8"}, {"compound": "O=C(NC1CC1)c1cc2c(s1)-c1ccccc1N(C(=O)c1cccc(N3CCCOCC3)n1)CC2", "note": "[Example 17]", "EC50": "< 0.4"}, {"compound": "Cc1cccc(F)c1NC(=O)c1cc2c(s1)-c1c(F)cccc1N(C(=O)c1cccc(-c3cn[nH]c3C3CC3)n1)CC2", "note": "[Example 171]", "EC50": "< 0.4"}, {"compound": "Cc1cccc(F)c1NC(=O)c1cc2c(s1)-c1ccccc1N(C(=O)c1cccc(N3C(=O)OC[C@@H]3c3ccccc3)n1)CC2", "note": "[Example 425]", "EC50": "< 0.4"}, {"compound": "Cc1cc(-c2cccc(C(=O)N3CCc4cc(C(=O)Nc5c(C)cccc5F)sc4-c4ccccc43)n2)n(C)n1", "note": "[Example 234]", "EC50": "< 0.4"}, {"compound": "Cc1cccc2c1CN(c1cccc(C(=O)N3CCc4cc(C(=O)Nc5c(C)cccc5F)sc4-c4ccccc43)n1)CCO2", "note": "[Example 405]", "EC50": "< 0.4"}, {"compound": "O=C(NC1CC1)c1cc2c(s1)-c1ccccc1N(C(=O)c1cccc(C3CCN(C4COC4)CC3)n1)CC2", "note": "[Example 57]", "EC50": "0.4 to 0.8"}, {"compound": "Cc1cccc(F)c1NC(=O)c1cc2c(s1)-c1ccccc1N(C(=O)c1cccc(N3CCC4(COC4)C3)n1)CC2", "note": "[Example 427]", "EC50": "> 0.8"}, {"compound": "COc1ccc(-c2cccc(C(=O)N3CCc4cc(C(=O)Nc5c(C)cccc5F)sc4-c4ccccc43)n2)cn1", "note": "[Example 264]", "EC50": "> 0.8"}, {"compound": "O=C(NC1CC1)c1cc2c(s1)-c1ccccc1N(C(=O)c1cccc(NCC3CCOC3)n1)CC2", "note": "(centres unmarked) [Example 291]", "EC50": "> 0.8"}, {"compound": "Cc1cccc(F)c1NC(=O)c1cc2c(s1)-c1ccccc1N(C(=O)c1cccc(-c3cnc(C(F)(F)F)n3C3CC3)n1)CC2", "note": "[Example 202]", "EC50": "< 0.4"}, {"compound": "O=C(NC1CC1)c1cc2c(s1)-c1ccccc1N(C(=O)c1cccc(N3CCc4ccccc4CC3)n1)CC2", "note": "[Example 31]", "EC50": "> 0.8"}, {"compound": "Cc1cccc(F)c1NC(=O)c1cc2c(s1)-c1ccccc1N(C(=O)c1cccc(-c3c[nH]c4ncccc34)n1)CC2", "note": "[Example 243]", "EC50": "< 0.4"}, {"compound": "N[C@H]1CCN(c2cccc(C(=O)N3CCc4cc(C(=O)NC5CC5)sc4-c4ccccc43)n2)C1", "note": "[Example 37]", "EC50": "> 0.8"}, {"compound": "Cc1cccc(F)c1NC(=O)c1cc2c(s1)-c1ccccc1N(C(=O)c1cccc(N3CCS(=O)(=O)c4ccccc4[C@H]3C)n1)CC2", "note": "[Example 433]", "EC50": "> 0.8"}, {"compound": "O=C(NC1CC1)c1cc2c(s1)-c1ccccc1N(C(=O)c1ccnc(N3CCCOCC3)n1)CC2", "note": "[Example 52]", "EC50": "0.4 to 0.8"}, {"compound": "O=C(NC1CC1)c1cc2c(s1)-c1ccccc1N(C(=O)c1ccc3ccc(N4CCOCC4)cc3n1)CC2", "note": "[Example 298]", "EC50": "> 0.8"}, {"compound": "Cc1cccc(F)c1NC(=O)c1cc2c(s1)-c1ccccc1N(C(=O)c1cccc(-c3ccc4nccc(Cl)c4c3)n1)CC2", "note": "[Example 189]", "EC50": "> 0.8"}, {"compound": "Cc1cccc(F)c1NC(=O)c1cc2c(s1)-c1ccccc1N(C(=O)c1ccc(-c3c[nH]nc3C)cc1)CC2", "note": "[Example 269]", "EC50": "> 0.8"}, {"compound": "Cc1cccc(F)c1NC(=O)c1cc2c(s1)-c1ccccc1N(C(=O)c1cccc(N3CCOc4ccc(Cl)cc4C3)n1)CC2", "note": "[Example 417]", "EC50": "< 0.4"}, {"compound": "Cc1cccc(F)c1NC(=O)c1cc2c(s1)-c1ccccc1N(C(=O)c1cccc(N3CCCOc4ccccc43)n1)CC2", "note": "[Example 404]", "EC50": "< 0.4"}, {"compound": "O=C(NC1CC1)c1cc2c(s1)-c1ccccc1N(C(=O)c1ccc(Cl)c(-c3ccnc(N4CCOCC4)c3)n1)CC2", "note": "[Example 93]", "EC50": "> 0.8"}, {"compound": "Cc1cccc(F)c1NC(=O)c1cc2c(s1)-c1ccccc1N(C(=O)c1cccc(N3C[C@@H](N)C[C@@H]3C)n1)CC2", "note": "[Example 390]", "EC50": "> 0.8"}, {"compound": "Cc1cccc(F)c1NC(=O)c1cc2c(s1)-c1ccccc1N(C(=O)c1cccc(-c3cncn3-c3ccccc3)n1)CC2", "note": "[Example 203]", "EC50": "> 0.8"}, {"compound": "O=C(NC1CC1)c1cc2c(s1)-c1ccccc1N(C(=O)c1cccc(N3CCS(=O)(=O)c4ccccc4C3)n1)CC2", "note": "[Example 283]", "EC50": "< 0.4"}, {"compound": "Cc1cccc(F)c1NC(=O)c1cc2c(s1)-c1ccc(F)cc1N(C(=O)c1cccc(N(C)C[C@H]3CCCO3)n1)CC2", "note": "[Example 491]", "EC50": "< 0.4"}, {"compound": "Cc1cccc(F)c1NC(=O)c1cc2c(s1)-c1ccccc1N(C(=O)c1cccc(N3CCCC(C)(C)CC3)n1)CC2", "note": "[Example 375]", "EC50": "0.4 to 0.8"}, {"compound": "Cc1cccc(F)c1NC(=O)c1cc2c(s1)-c1ccccc1N(C(=O)c1ccc(-c3c[nH]c4ccccc34)cc1)CC2", "note": "[Example 272]", "EC50": "> 0.8"}, {"compound": "COc1ccc2c(ccn2-c2cccc(C(=O)N3CCc4cc(C(=O)Nc5c(C)cccc5F)sc4-c4ccccc43)n2)c1", "note": "[Example 120]", "EC50": "< 0.4"}, {"compound": "O=C(NC1CC1)c1cc2c(s1)-c1ccccc1N(C(=O)c1cc(N3CCOCC3)ncn1)CC2", "note": "[Example 49]", "EC50": "> 0.8"}, {"compound": "Cc1cccc(F)c1NC(=O)c1cc2c(s1)-c1ccccc1N(C(=O)c1ccc(NC(=O)N3CC4(CCOCC4)C3)cc1)CC2", "note": "[Example 130]", "EC50": "> 0.8"}, {"compound": "Cc1cccc(F)c1NC(=O)c1cc2c(s1)-c1ccccc1N(C(=O)c1cccc(-c3cn(S(=O)(=O)C4CC4)nc3C3CC3)n1)CC2", "note": "[Example 221]", "EC50": "< 0.4"}, {"compound": "CS(=O)(=O)N1CC(NC(=O)c2cc3c(s2)-c2ccccc2N(C(=O)c2cccc(-c4c[nH]nc4C4CC4)n2)CC3)C1", "note": "[Example 184]", "EC50": "> 0.8"}, {"compound": "Cc1cccc(F)c1NC(=O)c1cc2c(s1)-c1ccccc1N(C(=O)c1cccc(NCc3cccc(C(F)(F)F)n3)n1)CC2", "note": "[Example 357]", "EC50": "> 0.8"}, {"compound": "Cc1cccc(F)c1NC(=O)c1cc2c(s1)-c1ccccc1N(C(=O)c1cccc(N3CC4CCC(C4)C3)n1)CC2", "note": "[Example 443]", "EC50": "> 0.8"}, {"compound": "O=C(NC1CC1)c1cc2c(s1)-c1ccccc1N(C(=O)c1cccc(N[C@@H]3CCOC3)n1)CC2", "note": "[Example 290]", "EC50": "> 0.8"}, {"compound": "COc1ccc(-c2cccc(C(=O)N3CCc4cc(C(=O)NC5CC5)sc4-c4ccccc43)c2)cc1", "note": "[Example 5]", "EC50": "0.4 to 0.8"}, {"compound": "Cc1cccc(F)c1NC(=O)c1cc2c(s1)-c1ccccc1N(C(=O)c1cccc(N(CCS(C)(=O)=O)C3CC3)n1)CC2", "note": "[Example 463]", "EC50": "0.4 to 0.8"}, {"compound": "CN1CCC(NC(=O)c2cc3c(s2)-c2ccccc2N(C(=O)c2cccc(N4CCOc5ccccc5C4)n2)CC3)CC1", "note": "[Example 308]", "EC50": "< 0.4"}, {"compound": "Cc1cnc(N2CC3(CCOC3)C2)c(NC(=O)c2ccc(C(=O)N3CCc4cc(C(=O)Nc5c(C)cccc5F)sc4-c4ccccc43)cc2)c1", "note": "[Example 140]", "EC50": "> 0.8"}, {"compound": "Cc1cccc(F)c1NC(=O)c1cc2c(s1)-c1ccccc1N(C(=O)c1cccc(-c3coc4cccnc34)n1)CC2", "note": "[Example 257]", "EC50": "> 0.8"}, {"compound": "CCS(=O)(=O)CCNc1cccc(C(=O)N2CCc3cc(C(=O)Nc4c(C)cccc4F)sc3-c3ccccc32)n1", "note": "[Example 494]", "EC50": "< 0.4"}, {"compound": "CCn1nccc1-c1cccc(C(=O)N2CCc3cc(C(=O)Nc4c(C)cccc4F)sc3-c3ccc(F)cc32)n1", "note": "[Example 174]", "EC50": "< 0.4"}, {"compound": "Cc1cccc(F)c1NC(=O)c1cc2c(s1)-c1ccccc1N(C(=O)c1cccc(N[C@H](CO)c3ccccc3)n1)CC2", "note": "[Example 502]", "EC50": "< 0.4"}, {"compound": "Cc1cccc(F)c1NC(=O)c1cc2c(s1)-c1ccccc1N(C(=O)c1cccc(-n3cnc4ncccc43)n1)CC2", "note": "[Example 122]", "EC50": "> 0.8"}, {"compound": "Cc1cccc(F)c1NC(=O)c1cc2c(s1)-c1ccc(F)cc1N(C(=O)c1cccc(N3CCOc4ccccc4C3)n1)CC2", "note": "[Example 488]", "EC50": "< 0.4"}, {"compound": "O=C(NC1CC1)c1cc2c(s1)-c1ccccc1N(C(=O)c1ccc(Cl)c(N3CCOCC3)n1)CC2", "note": "[Example 42]", "EC50": "0.4 to 0.8"}]}]}
